Test results reported in patent US9175305B2, “Mutant hydroxyphenylpyruvate dioxygenase polypeptides and methods of use” (Syngenta Participations AG, priority 2009, dated 2015).

How the values were obtained:
HPPD SEQ ID NO:24 = HPPD SEQ ID NO:24 (Avena sativa, UniProt A0ACD5V6K6, DEL109-109/L359M); experiment: biochemical; assay type: binding
Method: (§1) On rates (governed by an association rate constant, kon) for the formation of the enzyme: inhibitor complexes, EI and off rates (governed by a dissociation rate constant, koff) were determined by methods known in the art and essentially as described in Hawkes et al. (2001) Proc. Bright. Crop. Prot. Conf. Weeds, 2:563-568 and in PCT Patent App. Pub. No. WO 02/46387).
(§2) For example, on rates were measured by, at zero time, adding ˜60 pmoles HPPD to 50 mM BisTrisPropane buffer at pH7.0 and at 25° C. containing 25 mM Na ascorbate, 4 μg/ml bovine catalase (Sigma, St. Louis, Mo.) and an excess (˜300 pmoles) of ^14C inhibitor in a total assay volume of 425 μl and, at various time points (0-180 s), quenching the radiolabel binding reaction by addition and rapid mixing of 100 μl ‘cold’ 1 mM structure A. Protein samples quenched at different times were then exchanged into 50 mM BisTrisPropane buffer at pH 7.0 containing 0.1M KCl by rapid chromatography down a NAP5 G25 Sephadex column (GE Healthcare Ltd, Buckinghamshire UK) and the amount of ^14C bound to protein fractions quantified in Optiphase scintillant using a Tri-Carb 2900TR scintillation counter (Perkin Elmer, Wellesley, Mass.). The data were fit according to the scheme below in order to derive the value of the apparent second order rate constant, k2, governing the association rate of enzyme and radiolabelled inhibitor. A range of enzyme and inhibitor concentrations were used. […] Further example methods are described in PCT Patent App. Pub. No. WO 02/46387.
(§3) Off rates (k1 in the scheme below) were derived from exchange rate studies where either the test inhibitor, I, or its exchange partner, J were radiolabelled and the data fit according to the scheme below. As noted in Hawkes et al. (2001) Proc. Bright. Crop. Prot. Conf.
(§4) After 30 minutes the exchange reaction was initiated with addition of 100 μl 1 mM ‘cold’ structure A with thorough mixing, and, immediately, 150 μl were withdrawn and loaded onto a NAP5 column, the protein exchanged into 50 mM BisTrisPropane buffer at pH 7.0 containing 0.1M KCl by rapid (<2 min) chromatography down a NAP5 G25 Sephadex column (GE Healthcare Ltd, Buckinghamshire UK) and the amount of ^14C bound to protein measured by Optiphase scintillant using a Tri-Carb 2900TR scintillation counter (Perkin Elmer, Wellesley, Mass.). Further aliquots were removed and measured in the same way at various times over minutes or hours as required in order to determine the exchange kinetics.
(§5) After 30 minutes the reaction vessel was transferred to ice. After a further 10 minutes at ice temperature the exchange reaction was initiated by addition of 100 μl 1 mM Structure A, with thorough mixing, and 150 μl was withdrawn and loaded onto a NAP5 column in a cold room at ˜5-8° C. in order to quantify the amount of radiolabel remaining bound to the protein at various time from the start of exchange at ice temperature.
(§6) Off rates (k1) of HPPD inhibitors that are not available radiolabelled or that present other measurement problems (for example high levels of background non-specific protein-binding which can be measured as radiolabel binding that persists in the presence of high concentrations of ‘cold’ inhibitor) may be measured indirectly. […] Exemplary methods are also described in PCT Patent App. Pub. No. WO 02/46387.

HPPD SEQ ID NO:18 = HPPD SEQ ID NO:18 (Avena sativa, UniProt A0ACD5V6K6, DEL109-109/I285T); experiment: biochemical; assay type: binding
Method: as §1, §2, §3, §4, §5, §6

Jack w/t = experiment: herbicide spray test on soybean; assay type: in vivo; settings: C 400 g/ha, V2 growth stage, 14 DAT, average of n=7
Method: (§7) Each data point represents the average damage score from n=7 replicates.
(§8) Plants were in 4×4×4 inch plastic pots and grown under a 15/9 hour light regime (daylight supplemented by artificial light in greenhouses) at a minimum night-time temperature of 18° C. and maximum daytime temperature of 27° C. Soil was regular VBRC mix (1:1 mixture of Vero field soil and Fafard Mix II) where Vero field soil is 98% sand and 2% clay. […] Spray volume was 150 L/ha and the damage scores reflect assessments at 14 DAT.

[1] = tested on: soybean event T0 (vector 17147) expressing SEQ ID NO:24; experiment: herbicide spray test on soybean events; assay type: in vivo; settings: C 400 g/ha; event T0/SEQ#24; V2 growth stage; 14 DAT; average of n=7
Source text: as §7
(§9) These events were used to compare the performance of five 17147 events. Four of these, SF, S8, S7 and S3 had not been preselected for tolerance level (other than to confirm resistance, non-chimerical nature and the presence of the gene) while the remaining event, T0, had been preselected as the most resistant out of five 17147 events in a preliminary field test.
as §8

[2] = tested on: soybean event S3 (vector 17147) expressing SEQ ID NO:24; experiment: herbicide spray test on soybean events; assay type: in vivo; settings: C 400 g/ha; event S3/SEQ#24; V2 growth stage; 14 DAT; average of n=7
Source text: as §7, §9, §8

[3] = tested on: soybean event S7 (vector 17147) expressing SEQ ID NO:24; experiment: herbicide spray test on soybean events; assay type: in vivo; settings: C 400 g/ha; event S7/SEQ#24; V2 growth stage; 14 DAT; average of n=7
Source text: as §7, §9, §8

[4] = tested on: soybean event SF (vector 17147) expressing SEQ ID NO:24; experiment: herbicide spray test on soybean events; assay type: in vivo; settings: C 400 g/ha; event SF/SEQ#24; V2 growth stage; 14 DAT; average of n=7
Source text: as §7, §9, §8

[5] = tested on: soybean event 2 (vector 15764) expressing SEQ ID NO:14; experiment: herbicide spray test on soybean events; assay type: in vivo; settings: C 400 g/ha; event 2/SEQ#14; V2 growth stage; 14 DAT; average of n=7
Source text: as §7, §9, §8

[6] = tested on: soybean event 1 (vector 15764) expressing SEQ ID NO:14; experiment: herbicide spray test on soybean events; assay type: in vivo; settings: C 400 g/ha; event 1/SEQ#14; V2 growth stage; 14 DAT; average of n=7
Source text: as §7, §9, §8

[7] = tested on: soybean event S8 (vector 17147) expressing SEQ ID NO:24; experiment: herbicide spray test on soybean events; assay type: in vivo; settings: C 400 g/ha; event S8/SEQ#24; V2 growth stage; 14 DAT; average of n=7
Source text: as §7, §9, §8

HPPD SEQ ID NO:26 = HPPD SEQ ID NO:26 (Avena sativa, UniProt A0ACD5V6K6, DEL109-109/L256M/L359M); experiment: biochemical; assay type: binding; settings: read-out: koff (k1)
Method: as §1
For example, on rates were measured by, at zero time, adding ˜60 pmoles HPPD to 50 mM BisTrisPropane buffer at pH7.0 and at 25° C. containing 25 mM Na ascorbate, 4 μg/ml bovine catalase (Sigma, St. Louis, Mo.) and an excess (˜300 pmoles) of ^14C inhibitor in a total assay volume of 425 μl and, at various time points (0-180 s), quenching the radiolabel binding reaction by addition and rapid mixing of 100 μl ‘cold’ 1 mM structure A. Protein samples quenched at different times were then exchanged into 50 mM BisTrisPropane buffer at pH 7.0 containing 0.1M KCl by rapid chromatography down a NAP5 G25 Sephadex column (GE Healthcare Ltd, Buckinghamshire UK) and the amount of ^14C bound to protein fractions quantified in Optiphase scintillant using a Tri-Carb 2900TR scintillation counter (Perkin Elmer, Wellesley, Mass.). The data were fit according to the scheme below in order to derive the value of the apparent second order rate constant, k2, governing the association rate of enzyme and radiolabelled inhibitor. […]

Chain of HPPD SEQ ID NO:24 (A0ACD5V6K6 entry or part of it DEL109-109/L359M): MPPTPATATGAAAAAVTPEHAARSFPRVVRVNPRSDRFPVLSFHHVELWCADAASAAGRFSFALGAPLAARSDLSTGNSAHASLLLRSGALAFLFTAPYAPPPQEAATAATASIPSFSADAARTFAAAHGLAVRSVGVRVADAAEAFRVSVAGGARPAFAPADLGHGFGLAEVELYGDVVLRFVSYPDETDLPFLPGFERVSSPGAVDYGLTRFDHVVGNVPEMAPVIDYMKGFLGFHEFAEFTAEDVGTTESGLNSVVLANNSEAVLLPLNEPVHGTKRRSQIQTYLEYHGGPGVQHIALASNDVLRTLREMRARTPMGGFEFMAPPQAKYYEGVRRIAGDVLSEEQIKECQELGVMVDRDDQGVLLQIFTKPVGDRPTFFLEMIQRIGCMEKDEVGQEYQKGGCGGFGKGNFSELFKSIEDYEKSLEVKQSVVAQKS
Chain of HPPD SEQ ID NO:18 (A0ACD5V6K6 entry or part of it DEL109-109/I285T): as the sequence (A0ACD5V6K6 entry or part of it DEL109-109/L359M) above, with I284T, M358L counted along it
Chain of HPPD SEQ ID NO:26 (A0ACD5V6K6 entry or part of it DEL109-109/L256M/L359M): as the sequence (A0ACD5V6K6 entry or part of it DEL109-109/L359M) above, with L255M counted along it

SMILES: COCCOCc1nc(C(F)(F)F)ccc1C(=O)C1C(=O)C2CCC(C2)C1=O (stereo not shown) [Structure C]
- Kd (HPPD SEQ ID NO:24): 16 nM
- SEQ ID NO:24 superior to SEQ ID NO:14 (in vitro, in particular off rate data) (HPPD SEQ ID NO:24): neutral
- koff (HPPD SEQ ID NO:24; read-out: koff (k1)): 7.82e-05 s⁻¹
- kon (HPPD SEQ ID NO:24; read-out: kon (k2)): 4900 M⁻¹ s⁻¹
- Kd (HPPD SEQ ID NO:18): 11.9 nM
- koff (HPPD SEQ ID NO:18; read-out: koff (k1)): 9e-05 s⁻¹
- kon (HPPD SEQ ID NO:18; read-out: kon (k2)): 7500 M⁻¹ s⁻¹
- % dam. (Jack w/t): 82.1%
- % dam. [1]: 45%
- % dam. [2]: 62.1%
- % dam. [3]: 45%
- % dam. [4]: 98.6%
- % dam. [5]: 52.9%
- % dam. [6]: 42.1%
- % dam. [7]: 68.6%
- koff (HPPD SEQ ID NO:26): 9e-05 s⁻¹
